Measured values taken from patent US20240254118A1, “PRMT5 INHIBITORS AND USES THEREOF” (Gilead Sciences, Inc., priority 2022, published 2024).

How the values were obtained:
[1] = system: SDMA signal (PRMT5 inhibition) in HCT116 MTAP-deleted cells; assay: Symmetric di-methyl arginine image-based high content screen assay (SDMA assay), HCT116 MTAP-deleted; assay type: cell-based; conditions: SDMA assay; for EC50: Homo sapiens, HCT-116, 72 h, 3 days of treatment, cell line not given, taken as HCT116 MTAP-deleted, read-out: EC50 (SDMA assay); for EC50 selectivity (SDMA assay): taken as HCT116 WT versus MTAP-deleted
Summary of the method: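 Read-out: per-cell mean SDMA immunofluorescence (Alexa Fluor 488 secondary), cells segmented by DAPI on a high-content imager. Compound exposure in HCT116 MTAP-deleted cells lasted until fixation on Day 3; overnight 4° C primary anti-SDMA antibody staining.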

[2] = system: HCT116 MTAP-deleted cells; assay: Cell viability assay (CellTiter-Glo, 7 days), HCT116 MTAP-deleted; conditions: Homo sapiens, HCT-116, 168 h

Row | EC50 [1] [nM] | EC50 selectivity (SDMA assay) [1] | SMILES | CC50 [2] [nM]
1 | < 1 | 96 | CN(C(=O)C1CC1)N(Cc1ccc(C(F)(F)F)cc1)C(=O)c1ccc2nc(N)c3cnn(C)c3c2c1 [Example 343, 4-amino-N′-(cyclopropanecarbonyl)-N′,1-dimethyl-N-(4-(trifluoromethyl)benzyl)-1H-pyrazolo[4,3-c]quinoline-8-carbohydrazide] | < 100
2 | < 1 | 48 | CN(C(=O)C1CC1)N(Cc1ccc(C(F)(F)F)cc1F)C(=O)c1ccc2nc(N)c3cnn(C)c3c2c1 [Example 344, 4-amino-N′-(cyclopropanecarbonyl)-N-(2-fluoro-4-(trifluoromethyl)benzyl)-N′,1-dimethyl-1H-pyrazolo[4,3-c]quinoline-8-carbohydrazide] | < 100
3 | < 1 | 13 | Cn1ncc2c(N)nc3ccc(C(=O)N(NC(=O)C4CC4)C4COc5cc(C(F)(F)F)ccc54)cc3c21 (stereo not drawn) [Example 349, 4-amino-N′-(cyclopropanecarbonyl)-1-methyl-N-(6-(trifluoromethyl)-2,3-dihydrobenzofuran-3-yl)-1H-pyrazolo[4,3-c]quinoline-8-carbohydrazide] | < 100
4 | < 1 | 42 | CCOC(=O)NN(C(=O)c1ccc2nc(N)c3cnn(C)c3c2c1)C1COc2cc(C(F)(F)F)ccc21 (stereo not drawn) [Example 350, ethyl 2-(4-amino-1-methyl-1H-pyrazolo[4,3-c]quinoline-8-carbonyl)-2-(6-(trifluoromethyl)-2,3-dihydrobenzofuran-3-yl)hydrazine-1-carboxylate] | < 100
5 | 1 to 5 | 33 | CC(=O)N(C)N(Cc1ccc(C(F)(F)F)c(F)c1)C(=O)c1ccc2nc(N)c3cnn(C)c3c2c1 [Example 351, N′-acetyl-4-amino-N-(3-fluoro-4-(trifluoromethyl)benzyl)-N′,1-dimethyl-1H-pyrazolo[4,3-c]quinoline-8-carbohydrazide] | < 100
6 | < 1 | 320 | Cn1ncc2c(N)nc3ccc(C(=O)N(Cc4ccc(C(F)(F)F)cn4)N4CC(F)(F)C4)cc3c21 [Example 359, 4-amino-N-(3,3-difluoroazetidin-1-yl)-1-methyl-N-((5-(trifluoromethyl)pyridin-2-yl)methyl)-1H-pyrazolo[4,3-c]quinoline-8-carboxamide] | < 100
7 | 1 to 5 | 446 | CN(C(=O)C1CC1)N(Cc1ncc(Cl)cc1F)C(=O)c1ccc2nc(N)c3cnn(C)c3c2c1 [Example 360, 4-amino-N-((5-chloro-3-fluoropyridin-2-yl)methyl)-N′-(cyclopropanecarbonyl)-N′,1-dimethyl-1H-pyrazolo[4,3-c]quinoline-8-carbohydrazide] | < 100
8 | < 1 | 34 | CN(c1ccsn1)N(Cc1ccc(C(F)(F)F)cn1)C(=O)c1ccc2nc(N)c3cnn(C)c3c2c1 [Example 361] | < 100
9 | 1 to 5 | 468 | Cn1ncc2c(N)nc3ccc(C(=O)N(Cc4ccc(C(F)(F)F)cn4)N4C(=O)O[C@H]5CC[C@H]54)cc3c21 [Example 362, 4-amino-1-methyl-N-((1S,5R)-3-oxo-2-oxa-4-azabicyclo[3.2.0]heptan-4-yl)-N-((5-(trifluoromethyl)pyridin-2-yl)methyl)-1H-pyrazolo[4,3-c]quinoline-8-carboxamide] | < 100
10 | 1 to 5 | 233 | Cn1ncc2c(N)nc3ccc(C(=O)N(Cc4ccc(F)cc4F)N4CCOCC4)cc3c21 [Example 365, 4-amino-N-(2,4-difluorobenzyl)-1-methyl-N-morpholino-1H-pyrazolo[4,3-c]quinoline-8-carboxamide] | 100 to 1000
11 | 1 to 5 | 125 | CN(C(=O)C1CC1)N(Cc1ccc(-c2cnn(C(F)(F)F)c2)cc1)C(=O)c1ccc2nc(N)c3cnn(C)c3c2c1 [Example 374, 4-amino-N′-(cyclopropanecarbonyl)-N′,1-dimethyl-N-[[4-[1-(trifluoromethyl)pyrazol-4-yl]phenyl]methyl]pyrazolo[4,3-c]quinoline-8-carbohydrazide] | < 100
12 | 1 to 5 | 141 | CC(=O)N(C)N(Cc1ccc(-c2cnn(C(F)(F)F)c2)cc1)C(=O)c1ccc2nc(N)c3cnn(C)c3c2c1 [Example 375, N′-acetyl-4-amino-N′,1-dimethyl-N-[[4-[1-(trifluoromethyl)pyrazol-4-yl]phenyl]methyl]pyrazolo[4,3-c]quinoline-8-carbohydrazide] | < 100
13 | 1 to 5 | 164 | CN(C(=O)C1CC1)N(Cc1ccc(-c2cnn(C(F)(F)F)c2)cc1Cl)C(=O)c1ccc2nc(N)c3cnn(C)c3c2c1 [Example 376, 4-amino-N-[[2-chloro-4-[1-(trifluoromethyl)pyrazol-4-yl]phenyl]methyl]-N′-(cyclopropanecarbonyl)-N′,1-dimethyl-pyrazolo[4,3-c]quinoline-8-carbohydrazide] | < 100
14 | 1 to 5 | 167 | CN1CCN(N(Cc2ccc(C(F)(F)F)cn2)C(=O)c2ccc3nc(N)c4cnn(C)c4c3c2)C(=O)C1 [Example 382, 4-amino-1-methyl-N-(4-methyl-2-oxo-piperazin-1-yl)-N-[[5-(trifluoromethyl)-2-pyridyl]methyl]pyrazolo[4,3-c]quinoline-8-carboxamide] | < 100
15 | 1 to 5 | 168 | CN1CCN(N(Cc2ccc(C(F)(F)F)cn2)C(=O)c2cc3c(cc2F)nc(N)c2cnn(C)c23)C(=O)C1 [Example 383, 4-amino-7-fluoro-1-methyl-N-(4-methyl-2-oxo-piperazin-1-yl)-N-[[5-(trifluoromethyl)-2-pyridyl]methyl]pyrazolo[4,3-c]quinoline-8-carboxamide] | < 100
16 | 1 to 5 | 283 | CC(=O)N1CCN(N(Cc2ccc(C(F)(F)F)cn2)C(=O)c2ccc3nc(N)c4cnn(C)c4c3c2)CC1 [Example 384, N-(4-acetylpiperazin-1-yl)-4-amino-1-methyl-N-[[5-(trifluoromethyl)-2-pyridyl]methyl]pyrazolo[4,3-c]quinoline-8-carboxamide] | 100 to 1000
17 | 1 to 5 | 52 | COCC(=O)N(C)N(Cc1ccc(C(F)(F)F)cn1)C(=O)c1ccc2nc(N)c3cnn(C)c3c2c1 [Example 385, 4-amino-N′-(2-methoxyacetyl)-N′,1-dimethyl-N-[[5-(trifluoromethyl)-2-pyridyl]methyl]pyrazolo[4,3-c]quinoline-8-carbohydrazide] | < 100
18 | 1 to 5 | 20 | COCC(=O)N(C)N(Cc1ccc(C(F)(F)F)cn1)C(=O)c1cc2c(cc1F)nc(N)c1cnn(C)c12 [Example 386, 4-amino-7-fluoro-N′-(2-methoxyacetyl)-N′,1-dimethyl-N-[[5-(trifluoromethyl)-2-pyridyl]methyl]pyrazolo[4,3-c]quinoline-8-carbohydrazide] | < 100
19 | 1 to 5 | 44 | CC(=O)N(C)N(Cc1ccc(C#CC2CCCO2)cc1F)C(=O)c1ccc2nc(N)c3cnn(C)c3c2c1 (stereo not drawn) [Example 387, N′-acetyl-4-amino-N-[[2-fluoro-4-(2-tetrahydrofuran-2-ylethynyl)phenyl]methyl]-N′,1-dimethyl-pyrazolo[4,3-c]quinoline-8-carbohydrazide] | < 100
20 | < 1 | 40 | CC(=O)N(C)N(Cc1ccc(C#CC2CCOC2)cc1F)C(=O)c1ccc2nc(N)c3cnn(C)c3c2c1 (stereo not drawn) [Example 388, N′-acetyl-4-amino-N-[[2-fluoro-4-(2-tetrahydrofuran-3-ylethynyl)phenyl]methyl]-N′,1-dimethyl-pyrazolo[4,3-c]quinoline-8-carbohydrazide] | < 100
21 | 1 to 5 | 31 | CC(=O)N(C)N(Cc1ccc(C#CC(C)(C)O)cc1F)C(=O)c1ccc2nc(N)c3cnn(C)c3c2c1 [Example 389, N′-acetyl-4-amino-N-[[2-fluoro-4-(3-hydroxy-3-methyl-but-1-ynyl)phenyl]methyl]-N′,1-dimethyl-pyrazolo[4,3-c]quinoline-8-carbohydrazide] | < 100
22 | 1 to 5 | 27 | CC(=O)N(C)N(Cc1ccc(C#CC23CC(C2)C3)cc1F)C(=O)c1ccc2nc(N)c3cnn(C)c3c2c1 [Example 390, N′-acetyl-4-amino-N-[[4-[2-(1-bicyclo[1.1.1]pentanyl)ethynyl]-2-fluoro-phenyl]methyl]-N′,1-dimethyl-pyrazolo[4,3-c]quinoline-8-carbohydrazide] | < 100
23 | 1 to 5 | 64 | CN(C(=O)C1CC1)N(Cc1ccc(C#CC2CCCO2)cc1F)C(=O)c1ccc2nc(N)c3cnn(C)c3c2c1 (stereo not drawn) [Example 391, 4-amino-N′-(cyclopropanecarbonyl)-N-(2-fluoro-4-((tetrahydrofuran-2-yl)ethynyl)benzyl)-N′,1-dimethyl-1H-pyrazolo[4,3-c]quinoline-8-carbohydrazide] | < 100

Row | SMILES | EC50 [1] [nM] | EC50 selectivity (SDMA assay) [1] | CC50 [2] [nM]
24 | Cn1ncc2c(N)nc3ccc(C(=O)N(Cc4ccc(C(F)(F)F)cn4)N4CC5(CC(F)(F)C5)OC4=O)cc3c21 [Example 345, 4-amino-N-(2,2-difluoro-6-oxo-5-oxa-7-azaspiro[3.4]octan-7-yl)-1-methyl-N-((5-(trifluoromethyl)pyridin-2-yl)methyl)-1H-pyrazolo[4,3-c]quinoline-8-carboxamide] | 1 to 5 | 152 | 100 to 1000
